What was measured:
[1] = tested on: miR-122; test: quantitative RT PCR of mature miR-122 in Huh7 cells; type: cell-based, human; details: Huh7, 10 μM, 48 hours
Protocol: The activity of the small molecule modifiers was analyzed by quantitative RT PCR in order to measure their direct effects on miR-122 expression levels in Huh7 cells. […] All experiments were conducted in triplicate, and the data was normalized to a DMSO control.
Each treatment was conducted in triplicate to ensure statistical validity. Cells were then incubated at 37° C. for 48 hours (DMEM, 5% CO2). The media was removed, and cells were washed with PBS buffer (2×2 mL, pH 7.4) followed by RNA isolation with the mirPremier™ microRNA Isolation Kit (Aldrich). The RNA was quantified using a Nanodrop ND-1000 spectrophotometer and 10 ng of each RNA sample was reverse transcribed using the TaqMan™ microRNA Reverse Transcription Kit (Applied Biosystems) in conjunction with either the miR-122 or miR-21 TaqMan™ RT primer (16° C., 30 min; 42° C., 30 min; 85° C., 5 min). Quantitative Real Time PCR was conducted with a TaqMan™ 2× Universal PCR Master Mix and the appropriate TaqMan™ miRNA assay (Applied Biosystems) on a BioRad MyiQ RT-PCR thermocycler (1.3 μL RT PCR product; 95° C., 10 min; followed by 40 cycles of 95° C., 15 s; 60° C. 60 s). Threshold cycles were used to determine miRNA copy numbers, and the levels of miR-122 and miR-21 were compared via determination of threshold cycle (Ct) and conversion to copy number (copy number=10[(Ct−37.4)/−3.3]).^17 The data was then normalized to the DMSO control. The samples were also analyzed by real time PCR for the presence of pri-miR-122 transcript using the previously described primers (5′ […] 3′ (SEQ ID NO:5) and 5′ […] 3′ (SEQ ID NO:6); IDT DNA) and iQ SYBR Green Supermix for the real time PCR (95° C., 3 min; followed by 40 cycles of 95° C., 15 s; 60° C. 60 s).^14

[2] = tested on: psiCHECK-control vector (no miRNA target sequence); test: psiCHECK-control vector luciferase counter-assay in Huh7 cells; type: cell-based, human; details: Huh7, 10 μM
Text: (FIG. 3). […] The relative luciferase units were normalized to the corresponding DMSO signals. […] This confirms that compound 2 and the antagomir have similar effects on the reduction of miR-122 function in Huh7 cells.
Compounds which elicited greater than a 5-fold increase of the relative luciferase units signal compared to the DMSO control were then re-assayed in triplicate to confirm the validity of the hit compound. Upon secondary validation of miR-122 inhibition, identical assays were repeated with the psiCHECK-Control vector to ascertain that the effect is specific to the miR-122 pathway, and not simply affecting the Renilla gene. In order to assess the relative degree of miR-122 inhibition, Huh7 cells were also co-transfected with either the psiCHECK-Control plasmid or the psiCHECK-miR122 plasmid (0.5 μg) and a miR-122 2′-OMe PS antagomir (50 pmol; 5′ […] (SEQ ID NO:4) 3′; IDT DNA)(2) using the X-tremGENE transfection reagent (Roche Applied Science, 4:2 reagent/DNA ratio). The transfection media was replaced with standard DMEM growth media after 4 hours and the cells were incubated for 48 hours prior to analysis with a Dual Luciferase Assay Kit (FIG. 3).

[3] = tested on: miR-21; test: miR-21 luciferase reporter assay in HeLa-miR-21-Luc cells; type: cell-based; details: 10 μM, 48 hours
Protocol: Using the previously described HeLa-miR-21-Luc cell line (a stably transfected line harboring a miR-21 binding sequence in the 3′ UTR of a firefly luciferase gene),(9) cells were grown to 80% confluency (DMEM) and treated with either DMSO, the previously reported miR-21 inhibitor, or compounds 1 and 2 at 10 μM (1% DMSO final concentration). The cells were incubated for 48 hours at 37° C. (5% CO2) and then assayed with a Bright-Glo Luciferase Kit (Promega) and analyzed using a Wallac VICTOR^3V luminometer with a measurement time of 1 s and a delay time of 2 s (FIG. 4).

| Compound | knock-down of mature miR-122 levels relative to DMSO treated cells [1] [%] | normalized Renilla luciferase signal with psiCHECK-control vector [2] | activity in miRNA-21 reporter (luciferase signal) [3] |
| --- | --- | --- | --- |
| O=C(Nc1ccc2ccccc2c1)c1ccc(Cl)cc1Cl [Compound 1] | 45 | no statistically significant alteration | no activity was found |
| O=S(=O)(c1ccc2c(c1)CCCN2)N1CCC[C@H]2CCCC[C@@H]21 [Compound 2] | 72 | no statistically significant alteration | no activity was found |
